Assay results as given in patent US10189845B2, “4,6-substituted-pyrazolo[1,5-a]pyrazines as janus kinase inhibitors” (ARRAY BIOPHARMA INC., priority 2014, dated 2019).
Counter-ions that a name gives are not always drawn. Like-named read-outs stand apart in the source and are kept apart here.

Key:
Assay type in all cases: biochemical
JAK3 = JAK3 (Homo sapiens (Human), UniProt P52333); assay: JAK3 Inhibition Assay (Example D, Omnia kinase fluorescence peptide substrate assay)
Procedure, shortened: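 Mixture held 2 nM JAK3, 1 mM ATP and 10 μM Omnia Y7 peptide in 25 mM HEPES pH 7.4, 10 mM MgCl2, 0.01% Triton X-100, 1 mM DTT, 2% DMSO final. Sox fluorescence (ex 360/em 485 nm) was read every 50 s for 45 min. IC50 came from a 4-parameter logistic fit of percent of control.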

JAK1 = JAK1 (Homo sapiens (Human), UniProt P23458); assay: JAK1 Inhibition Assay (Example B, Omnia kinase fluorescence peptide substrate assay)
Sequence of JAK1 (P23458 whole entry): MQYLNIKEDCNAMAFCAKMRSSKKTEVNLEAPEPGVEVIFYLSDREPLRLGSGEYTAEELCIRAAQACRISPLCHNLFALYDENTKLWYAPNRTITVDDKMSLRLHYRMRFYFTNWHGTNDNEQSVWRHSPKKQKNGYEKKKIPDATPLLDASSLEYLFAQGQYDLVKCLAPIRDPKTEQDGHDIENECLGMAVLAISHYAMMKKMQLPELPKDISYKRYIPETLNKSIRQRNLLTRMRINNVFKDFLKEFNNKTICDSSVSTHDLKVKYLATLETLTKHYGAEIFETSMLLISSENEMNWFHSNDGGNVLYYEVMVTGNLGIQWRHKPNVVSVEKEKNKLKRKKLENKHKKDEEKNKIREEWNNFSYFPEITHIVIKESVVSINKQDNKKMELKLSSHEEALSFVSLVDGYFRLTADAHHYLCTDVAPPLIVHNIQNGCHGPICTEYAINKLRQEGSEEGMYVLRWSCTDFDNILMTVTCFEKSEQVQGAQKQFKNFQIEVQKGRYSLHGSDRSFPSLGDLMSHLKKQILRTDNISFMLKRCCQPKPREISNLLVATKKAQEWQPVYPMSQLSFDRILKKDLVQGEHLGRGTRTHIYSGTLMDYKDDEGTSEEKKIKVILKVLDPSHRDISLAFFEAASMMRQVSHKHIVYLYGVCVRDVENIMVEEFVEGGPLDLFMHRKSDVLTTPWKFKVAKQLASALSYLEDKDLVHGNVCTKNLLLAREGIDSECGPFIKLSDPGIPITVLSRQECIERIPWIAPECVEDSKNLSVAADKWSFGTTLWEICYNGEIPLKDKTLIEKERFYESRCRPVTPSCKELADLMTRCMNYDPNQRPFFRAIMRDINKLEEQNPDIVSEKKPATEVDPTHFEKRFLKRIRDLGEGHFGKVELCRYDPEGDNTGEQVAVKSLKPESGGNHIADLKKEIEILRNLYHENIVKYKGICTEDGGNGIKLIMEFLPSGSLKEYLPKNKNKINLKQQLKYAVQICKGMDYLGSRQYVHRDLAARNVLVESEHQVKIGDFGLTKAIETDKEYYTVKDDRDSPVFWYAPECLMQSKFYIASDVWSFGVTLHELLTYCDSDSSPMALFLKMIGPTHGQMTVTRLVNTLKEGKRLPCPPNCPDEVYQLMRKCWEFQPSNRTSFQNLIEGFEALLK
Procedure, shortened: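 Recombinant human JAK1 (12.5 nM) with 1 mM ATP and 8 μM Omnia Y12 Sox-peptide in 25 mM HEPES pH 7.4, 10 mM MgCl2, 0.01% Triton X-100, 1 mM DTT, 2% DMSO final. Phosphorylation read kinetically (ex 360/em 485 nm, 45 min); IC50 from 4-parameter fit of percent of control.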

Human Tyk2 kinase domain = Human Tyk2 kinase domain (Homo sapiens (Human), UniProt P29597); assay: Tyk2 Inhibition Assay (Example A, Omnia kinase fluorescence peptide substrate assay); conditions: TYK2 Enzyme IC50 1 mM ATP, averaged IC50 ranges
Sequence of Human Tyk2 kinase domain (P29597 886-1187): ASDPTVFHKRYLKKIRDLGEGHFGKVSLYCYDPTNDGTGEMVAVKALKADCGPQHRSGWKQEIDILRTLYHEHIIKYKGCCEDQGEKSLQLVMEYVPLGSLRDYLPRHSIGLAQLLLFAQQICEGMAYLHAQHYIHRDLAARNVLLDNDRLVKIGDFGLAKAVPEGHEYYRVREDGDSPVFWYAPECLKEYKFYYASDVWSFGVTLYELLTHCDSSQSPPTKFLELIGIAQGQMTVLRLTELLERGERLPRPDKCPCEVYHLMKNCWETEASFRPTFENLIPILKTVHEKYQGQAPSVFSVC
Procedure, shortened: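 Omnia Sox-peptide kinetic fluorescence assay (ex 360/em 485 nm, read every 50 s for 45 min) with 1 nM human Tyk2 kinase domain (aa 886–1187, His tag cleaved, baculovirus-expressed), 1 mM ATP, 8 μM Omnia Y12 peptide, in 25 mM HEPES pH 7.4, 10 mM MgCl2, 0.01% Triton X-100, 1 mM DTT, 2% DMSO. IC50 from 4-parameter logistic fit of percent of control.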

JAK2 = JAK2 (Homo sapiens (Human), UniProt O60674); assay: JAK2 Inhibition Assay (Example C, Omnia kinase fluorescence peptide substrate assay); conditions: JAK2 Enzyme IC50 1 mM ATP, averaged IC50 ranges
Sequence of JAK2 (O60674 whole entry): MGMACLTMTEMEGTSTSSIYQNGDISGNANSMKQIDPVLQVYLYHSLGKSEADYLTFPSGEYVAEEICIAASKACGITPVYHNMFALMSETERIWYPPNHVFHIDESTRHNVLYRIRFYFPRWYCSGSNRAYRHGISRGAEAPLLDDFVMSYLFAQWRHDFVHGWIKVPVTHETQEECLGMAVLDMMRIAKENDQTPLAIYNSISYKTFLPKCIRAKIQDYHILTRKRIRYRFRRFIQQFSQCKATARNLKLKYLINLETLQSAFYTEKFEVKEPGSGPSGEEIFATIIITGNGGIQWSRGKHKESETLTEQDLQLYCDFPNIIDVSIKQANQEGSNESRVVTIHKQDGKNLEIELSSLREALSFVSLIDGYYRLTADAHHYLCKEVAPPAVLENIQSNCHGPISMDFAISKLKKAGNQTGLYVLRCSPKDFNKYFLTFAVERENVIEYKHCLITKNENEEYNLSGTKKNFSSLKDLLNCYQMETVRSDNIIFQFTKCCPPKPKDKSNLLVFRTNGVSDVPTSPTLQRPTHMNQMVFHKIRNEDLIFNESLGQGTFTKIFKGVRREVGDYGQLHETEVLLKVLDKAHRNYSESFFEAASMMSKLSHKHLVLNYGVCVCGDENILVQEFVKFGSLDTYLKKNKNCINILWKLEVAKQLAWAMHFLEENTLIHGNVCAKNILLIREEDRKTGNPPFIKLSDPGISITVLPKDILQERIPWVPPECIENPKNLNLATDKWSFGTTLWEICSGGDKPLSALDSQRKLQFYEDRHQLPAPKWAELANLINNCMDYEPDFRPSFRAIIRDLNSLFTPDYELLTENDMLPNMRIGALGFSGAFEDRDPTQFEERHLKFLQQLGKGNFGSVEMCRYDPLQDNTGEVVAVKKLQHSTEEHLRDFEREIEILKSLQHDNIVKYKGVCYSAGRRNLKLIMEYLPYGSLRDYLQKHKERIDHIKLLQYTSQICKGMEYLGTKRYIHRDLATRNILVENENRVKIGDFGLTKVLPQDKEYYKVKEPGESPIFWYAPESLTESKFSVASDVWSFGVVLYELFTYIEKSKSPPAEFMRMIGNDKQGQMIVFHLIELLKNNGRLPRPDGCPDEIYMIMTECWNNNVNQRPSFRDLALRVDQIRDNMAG
Procedure, shortened: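 4 nM JAK2 with 1 mM ATP and 10 μM Omnia Y7 peptide in 25 mM HEPES pH 7.4, 10 mM MgCl2, 0.01% Triton X-100, 1 mM DTT, 2% DMSO. Sox fluorescence (ex 360/em 485 nm) read every 50 s for 45 min; IC50 from 4-parameter fit of percent of control.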

[1] = JAK1 Enzyme IC50 1 mM ATP, 1 mM ATP, averaged IC50 ranges

Sequence of JAK3 (P52333 whole entry): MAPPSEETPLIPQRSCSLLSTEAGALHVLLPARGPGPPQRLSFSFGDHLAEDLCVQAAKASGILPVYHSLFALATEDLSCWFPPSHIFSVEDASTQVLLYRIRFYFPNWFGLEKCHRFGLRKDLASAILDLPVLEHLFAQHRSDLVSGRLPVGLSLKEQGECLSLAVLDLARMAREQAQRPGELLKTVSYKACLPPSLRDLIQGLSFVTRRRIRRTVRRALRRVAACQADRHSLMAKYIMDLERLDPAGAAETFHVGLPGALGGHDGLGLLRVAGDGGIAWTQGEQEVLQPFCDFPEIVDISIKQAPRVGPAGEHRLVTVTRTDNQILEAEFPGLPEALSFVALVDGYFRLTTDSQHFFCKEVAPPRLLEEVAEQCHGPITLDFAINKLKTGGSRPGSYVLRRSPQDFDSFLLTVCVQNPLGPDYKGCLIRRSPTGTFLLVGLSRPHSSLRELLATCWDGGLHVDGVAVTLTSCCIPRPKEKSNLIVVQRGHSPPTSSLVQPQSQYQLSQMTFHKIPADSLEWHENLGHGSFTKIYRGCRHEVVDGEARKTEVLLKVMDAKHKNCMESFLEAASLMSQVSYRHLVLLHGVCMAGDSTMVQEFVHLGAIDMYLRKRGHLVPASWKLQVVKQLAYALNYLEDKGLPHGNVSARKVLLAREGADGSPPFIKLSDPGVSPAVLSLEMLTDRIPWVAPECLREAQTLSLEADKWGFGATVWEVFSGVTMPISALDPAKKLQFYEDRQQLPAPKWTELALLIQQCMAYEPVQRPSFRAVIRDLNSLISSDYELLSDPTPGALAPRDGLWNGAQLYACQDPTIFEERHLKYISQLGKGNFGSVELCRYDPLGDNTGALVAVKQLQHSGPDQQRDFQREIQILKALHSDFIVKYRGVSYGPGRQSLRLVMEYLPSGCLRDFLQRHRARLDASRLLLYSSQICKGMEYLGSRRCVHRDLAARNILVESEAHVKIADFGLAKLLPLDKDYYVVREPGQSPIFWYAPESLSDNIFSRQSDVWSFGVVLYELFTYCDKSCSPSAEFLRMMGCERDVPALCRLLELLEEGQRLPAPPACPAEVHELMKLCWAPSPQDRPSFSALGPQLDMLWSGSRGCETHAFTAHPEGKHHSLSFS

IC50 (JAK3) [nM]	IC50 (JAK1; [1]) [nM]	IC50 (Human Tyk2 kinase domain) [nM]	IC50 (JAK2) [nM]	IC50 (JAK1) [nM]	Compound
1000 to 10000	1000 to 10000	100 to 1000	100 to 1000	–	CC(C)C[C@H](C)n1cc(-c2nc(-c3cnn(C[C@@H](O)CO)c3)cn3nccc23)cn1 [Example 75, (R)-3-(4-(4-(1-((S)-4-methylpentan-2-yl)-1H-pyrazol-4-yl)pyrazolo[1,5-a]pyrazin-6-yl)-1H-pyrazol-1-yl)propane-1,2-diol]
1000 to 10000	–	10 to 100	10 to 100	100 to 1000	CCC(CC)n1cc(-c2nc(-c3cnn(CC(O)CCO)c3)cn3nccc23)cn1 (centres unmarked) [Example 63, 4-(4-(4-(1-(pentan-3-yl)-1H-pyrazol-4-yl)pyrazolo[1,5-a]pyrazin-6-yl)-1H-pyrazol-1-yl)butane-1,3-diol]
1000 to 10000	–	10 to 100	10 to 100	1000 to 10000	CCC(CC)n1cc(-c2nc(-c3cnn(C[C@@H](N)CO)c3)cn3nccc23)cn1 [Example 130, (R)-2-amino-3-(4-(4-(1-(pentan-3-yl)-1H-pyrazol-4-yl)pyrazolo[1,5-a]pyrazin-6-yl)-1H-pyrazol-1-yl)propan-1-ol]
1000 to 10000	–	10 to 100	10 to 100	10 to 100	CCC(C1CC(F)(F)C1)n1cc(-c2nc(-c3cnn(C[C@@H](O)CO)c3)cn3nccc23)cn1 (stereo partly drawn) [Example 79, (2R)-3-(4-(4-(1-(1-(3,3-difluorocyclobutyl)propyl)-1H-pyrazol-4-yl)pyrazolo[1,5-a]pyrazin-6-yl)-1H-pyrazol-1-yl)propane-1,2-diol]
1000 to 10000	10 to 100	10 to 100	10 to 100	–	CCC(CC)n1cc(-c2nc(-c3cnn(C[C@@H](C)CO)c3)cn3nccc23)cn1 [Example 14, (R)-2-methyl-3-(4-(4-(1-(pentan-3-yl)-1H-pyrazol-4-yl)pyrazolo[1,5-a]pyrazin-6-yl)-1H-pyrazol-1-yl)propan-1-ol]
1000 to 10000	–	10 to 100	10 to 100	100 to 1000	CCC(CC)n1cc(-c2nc(-c3cnn([C@@H]4CCCNC4)c3)cn3nccc23)cn1 [Example 29, (R)-4-(1-(pentan-3-yl)-1H-pyrazol-4-yl)-6-(1-(piperidin-3-yl)-1H-pyrazol-4-yl)pyrazolo[1,5-a]pyrazine]
1000 to 10000	–	10 to 100	10 to 100	1000 to 10000	CCC(CC)n1cc(-c2nc(-c3cnn(C4CN(C(=O)CN)C4)c3)cn3nccc23)cn1 [Example 186, 2-amino-1-(3-(4-(4-(1-(pentan-3-yl)-1H-pyrazol-4-yl)pyrazolo[1,5-a]pyrazin-6-yl)-1H-pyrazol-1-yl)azetidin-1-yl)ethanone]
1000 to 10000	1000 to 10000	100 to 1000	100 to 1000	–	CC(C)C[C@@H](C)n1cc(-c2nc(-c3cnn(C[C@H](O)CO)c3)cn3nccc23)cn1 [Example 78, (S)-3-(4-(4-(1-((R)-4-methylpentan-2-yl)-1H-pyrazol-4-yl)pyrazolo[1,5-a]pyrazin-6-yl)-1H-pyrazol-1-yl)propane-1,2-diol]
1000 to 10000	1000 to 10000	10 to 100	100 to 1000	–	CCC(CC)n1cc(-c2nc(-c3cnn([C@@H](C)CO)c3)cn3nccc23)cn1 [Example 125, (S)-2-(4-(4-(1-(pentan-3-yl)-1H-pyrazol-4-yl)pyrazolo[1,5-a]pyrazin-6-yl)-1H-pyrazol-1-yl)propan-1-ol]
1000 to 10000	–	1000 to 10000	1000 to 10000	1000 to 10000	CCOC(C)n1cc(-c2nc(-c3cnn(C)c3)cn3nccc23)cn1 (centres unmarked) [Example 1, 4-(1-(1-ethoxyethyl)-1H-pyrazol-4-yl)-6-(1-methyl-1H-pyrazol-4-yl)pyrazolo[1,5-a]pyrazine]
1000 to 10000	–	10 to 100	10 to 100	1000 to 10000	CCC(CC)n1cc(-c2nc(-c3cnn(C4CN(C(=O)[C@H]5C[C@H](O)C5)C4)c3)cn3nccc23)cn1 [Example 179, (trans-3-hydroxycyclobutyl)(3-(4-(4-(1-(pentan-3-yl)-1H-pyrazol-4-yl)pyrazolo[1,5-a]pyrazin-6-yl)-1H-pyrazol-1-yl)azetidin-1-yl)methanone]
1000 to 10000	100 to 1000	10 to 100	10 to 100	–	CCC(CC)n1cc(-c2nc(-c3cnn([C@@H](C)[C@H](C)O)c3)cn3nccc23)cn1 (single isomer, unassigned) [Example 155]
1000 to 10000	–	10 to 100	10 to 100	1000 to 10000	C[C@@H]1CCCC[C@H]1n1cc(-c2nc(-c3cnn(C(CO)CO)c3)cn3nccc23)cn1 (single isomer, unassigned) [Example 150]
1000 to 10000	1000 to 10000	100 to 1000	100 to 1000	–	CCC(CC)n1cc(-c2nc(-c3cnn(C[C@H](O)CN4CCCC4)c3)cn3nccc23)cn1 [Example 105, (R)-1-(4-(4-(1-(pentan-3-yl)-1H-pyrazol-4-yl)pyrazolo[1,5-a]pyrazin-6-yl)-1H-pyrazol-1-yl)-3-(pyrrolidin-1-yl)propan-2-ol]
1000 to 10000	–	100 to 1000	1000 to 10000	1000 to 10000	Cn1cc(-c2cn3nccc3c(-c3cnn(C4(C)CCCC4)c3)n2)cn1 [Example 49, 6-(1-methyl-1H-pyrazol-4-yl)-4-(1-(1-methylcyclopentyl)-1H-pyrazol-4-yl)pyrazolo[1,5-a]pyrazine]
1000 to 10000	100 to 1000	10 to 100	10 to 100	–	CCC(CC)n1cc(-c2nc(-c3cnn(C[C@@H](CO)N(C)C)c3)cn3nccc23)cn1 [Example 129, (S)-2-(dimethylamino)-3-(4-(4-(1-(pentan-3-yl)-1H-pyrazol-4-yl)pyrazolo[1,5-a]pyrazin-6-yl)-1H-pyrazol-1-yl)propan-1-ol]
1000 to 10000	–	100 to 1000	10 to 100	1000 to 10000	CCC(CC)n1cc(-c2nc(-c3cnn(CCN[C@@H]4CCN(C)C4=O)c3)cn3nccc23)cn1 [Example 143, (R)-1-methyl-3-((2-(4-(4-(1-(pentan-3-yl)-1H-pyrazol-4-yl)pyrazolo[1,5-a]pyrazin-6-yl)-1H-pyrazol-1-yl)ethyl)amino)pyrrolidin-2-one]
1000 to 10000	–	10 to 100	10 to 100	1000 to 10000	CCC(CC)n1cc(-c2nc(-c3cnn(CCN4CC[C@H](O)C4)c3)cn3nccc23)cn1 [Example 141, (S)-1-(2-(4-(4-(1-(pentan-3-yl)-1H-pyrazol-4-yl)pyrazolo[1,5-a]pyrazin-6-yl)-1H-pyrazol-1-yl)ethyl)pyrrolidin-3-ol]
1000 to 10000	1000 to 10000	10 to 100	10 to 100	–	CCC(CC)n1cc(-c2nc(-c3cnn([C@@H]4CCC[C@@H]4O)c3)cn3nccc23)cn1 [Example 189, (1S,2R)-2-(4-(4-(1-(pentan-3-yl)-1H-pyrazol-4-yl)pyrazolo[1,5-a]pyrazin-6-yl)-1H-pyrazol-1-yl)cyclopentanol]
1000 to 10000	1000 to 10000	100 to 1000	100 to 1000	–	CCC(CC)n1cc(-c2nc(-c3cnn(CC4(O)CCNCC4)c3)cn3nccc23)cn1 [Example 184, 4-((4-(4-(1-(pentan-3-yl)-1H-pyrazol-4-yl)pyrazolo[1,5-a]pyrazin-6-yl)-1H-pyrazol-1-yl)methyl)piperidin-4-ol]
1000 to 10000	100 to 1000	10 to 100	10 to 100	–	CCC(CC)n1cc(-c2nc(-c3cnn(C[C@H](O)[C@H](C)O)c3)cn3nccc23)cn1 [Example 65, (2S,3S)-1-(4-(4-(1-(pentan-3-yl)-1H-pyrazol-4-yl)pyrazolo[1,5-a]pyrazin-6-yl)-1H-pyrazol-1-yl)butane-2,3-diol]

Compound	IC50 (JAK3) [nM]	IC50 (JAK1; [1]) [nM]	IC50 (Human Tyk2 kinase domain) [nM]	IC50 (JAK2) [nM]	IC50 (JAK1) [nM]
CC[C@@H](C)n1cc(-c2nc(-c3cnn(C[C@H](O)CO)c3)cn3nccc23)cn1 [Example 71, (S)-3-(4-(4-(1-((R)-sec-butyl)-1H-pyrazol-4-yl)pyrazolo[1,5-a]pyrazin-6-yl)-1H-pyrazol-1-yl)propane-1,2-diol]	1000 to 10000	1000 to 10000	100 to 1000	100 to 1000	–
C[C@H](CC(F)(F)F)n1cc(-c2nc(-c3cnn(C[C@@H](O)CO)c3)cn3nccc23)cn1 [Example 194, (R)-3-(4-(4-(1-((R)-4,4,4-trifluorobutan-2-yl)-1H-pyrazol-4-yl)pyrazolo[1,5-a]pyrazin-6-yl)-1H-pyrazol-1-yl)propane-1,2-diol hydrochloride]	1000 to 10000	1000 to 10000	100 to 1000	100 to 1000	–
